From patent US20140004207A1, “Analgesic Apatitic Calcium-Phosphate Cement” (priority 2008, published 2014)

Key:
[1] = Stability of bupivacaine within the composition on storage; type: physicochemical; conditions: 4° C.
Experimental: The same method was applied to determine the lidocaine release. A first assay confirmed that the bupivacaine within the composition is stable for 3 months at 4° C.

[2] = HPLC and MS analysis of bupivacaine after association and release from CDA; type: physicochemical; conditions: cold isostatic compression; three days in water at 37° C.; HPLC and MS vs native molecule
Experimental: Bupivacaine-loaded CDA (400 mg) was stirred in 5 ml of water for three days at 37° C. The aqueous solution was passed through a microfiltration membrane with a pore size of 0.22 μm. Several aliquots of this solution were diluted to working concentration with HPLC. An aliquot of this solution (1 ml) was extracted with 1 ml of dichloromethane (HiPerSolv for HPLC, VWR-BDH). The organic phase was dried over Na2SO4 for further MS studies. HPLC HP 1100 (C18 column, Inertsil 5 ODS-3), flow: 0.5 ml mn^−1, solvent: acetonitrile/water [80/20], injection volume: 10 μl, detection: 230 nm). The liquid phase was prepared by mixing Acetonitrile for HPLC Gradient Grade (VWR-BDH-Prolabo) with pure water. A thermo Electron Corporation DSQ II bench-top quadruple mass spectrometer fitted with a direct sample probe or GC, with chemical ionization (CI), was used for data acquisition and processing.

[3] = intrabone injection, percutaneous vertebroplastics; cited from earlier work
[4] = continuous intravenous administration; cited from earlier work

stability of bupivacaine within the composition [1] [months] | integrity of bupivacaine after association with CDA granules and release [2] | Structure (SMILES) | effectiveness versus antalgic protocol comprising nalbuphine and paracetamol [3] | serum levels of lidocaine [3] | postoperative morphine intake [4]
3 | remained unchanged | CCCCN1CCCCC1C(=O)Nc1c(C)cccc1C (centres unmarked) [bupivacaine] |  |  | 
 |  | CCN(CC)CC(=O)Nc1c(C)cccc1C [lidocaine] | comparable effectiveness | much below the toxic level | reduction of the postoperative morphine intake
